Where “and” joins values, the source holds several entries; their conditions need not be identical. Identical values can stand only once.
Test system: Angiotensin II (AII) vasopressor response
Test: AII challenge: vasopressor response of angiotensin II in conscious SHR
Assay type: in vivo, rat (Conscious Male Okamoto-Aoki SHR)
Details: for % Inhibition / Average Change: SHR n = 2; for Response After AII / Change / Control Before AII: single rat, SHR
Excerpt: By administering a compound of this invention to a rat, and then challenging with angiotensin II, a blockage of the vasopressor response is realized.
Conscious Male Okamoto-Aoki SHR, 16-20 weeks old, weighing approximately 330 g are purchased from Charles River Labs (Wilmington, Mass.). Conscious rats are restrained in a supine position with elastic tape. The area at the base of the tail is locally anesthetized by subcutaneous infiltration with 2% procaine. The ventral caudal artery and vein are isolated, and a cannula made of polyethylene (PE) 10-20 tubing (fused together by heat) is passed into the lower abdominal aorta and vena cava, respectively. The cannula is secured, heparinized (1,000 I.U./ml), sealed and the wound is closed. The animals are placed in plastic restraining cages in an upright position. The cannula is attached to a Statham P23Db pressure transducer, and pulsatile blood pressure is recorded to 10-15 minutes with a Gould Brush recorder. (Chan et al., (Drug Development Res., 18:75-94, 1989).
Angiotensin II (human sequence, Sigma Chem. Co., St. Louis, Mo.) of 0.05 and 0.1 ug/kg i.v. is injected into all rats (predosing response). Then a test compound, vehicle or a known angiotensin II antagonist is administered i.v., i.p. or orally to each set of rats. The two doses of angiotensin II are given to each rat again at 30, 60, 90, 120, 180, 240 and 300 minutes post dosing the compound or vehicle. The vasopressor response of angiotensin II is measured for the increase in systolic blood pressure in mmhg. The percentage of antagonism or blockade of the vasopressor response of angiotensin II by a compound is calculated using the vasopressor response (increase in systolic blood pressure) of angiotensin II of each rat predosing the compound as 100%. A compound is considered active if at 30 mg/kg i.v. it antagonized at least 50% of the response.

[1] = 1 mg/kg I.V., AII 0.05 mcg/kg IV, 30 min post dose
[2] = 1 mg/kg I.V., AII 0.05 mcg/kg IV, 60 min post dose
[3] = 1 mg/kg I.V., AII 0.05 mcg/kg IV, 90 min post dose
[4] = 1 mg/kg I.V., AII 0.05 mcg/kg IV, 120 min post dose
[5] = 1 mg/kg I.V., AII 0.05 mcg/kg IV, 180 min post dose
[6] = 1 mg/kg I.V., AII 0.05 mcg/kg IV, 240 min post dose
[7] = 1 mg/kg I.V., AII 0.1 mcg/kg IV, 30 min post dose
[8] = 1 mg/kg I.V., AII 0.1 mcg/kg IV, 60 min post dose
[9] = 1 mg/kg I.V., AII 0.1 mcg/kg IV, 90 min post dose
[10] = 1 mg/kg I.V., AII 0.1 mcg/kg IV, 120 min post dose
[11] = 1 mg/kg I.V., AII 0.1 mcg/kg IV, 180 min post dose
[12] = 1 mg/kg I.V., AII 0.1 mcg/kg IV, 240 min post dose
[13] = 2 mg/kg P.O., AII 0.05 mcg/kg IV, 30 min post dose
[14] = 2 mg/kg P.O., AII 0.05 mcg/kg IV, 60 min post dose
[15] = 2 mg/kg P.O., AII 0.05 mcg/kg IV, 90 min post dose
[16] = 2 mg/kg P.O., AII 0.05 mcg/kg IV, 120 min post dose
[17] = 2 mg/kg P.O., AII 0.05 mcg/kg IV, 180 min post dose
[18] = 2 mg/kg P.O., AII 0.1 mcg/kg IV, 30 min post dose
[19] = 2 mg/kg P.O., AII 0.1 mcg/kg IV, 60 min post dose
[20] = 2 mg/kg P.O., AII 0.1 mcg/kg IV, 90 min post dose
[21] = 2 mg/kg P.O., AII 0.1 mcg/kg IV, 120 min post dose
[22] = 2 mg/kg P.O., AII 0.1 mcg/kg IV, 180 min post dose
[23] = 1 mg/kg I.V., AII 0.05 mcg/kg IV, 30 min post dose, 1 mg/kg
[24] = 1 mg/kg I.V., AII 0.05 mcg/kg IV, 60 min post dose, 1 mg/kg
[25] = 1 mg/kg I.V., AII 0.05 mcg/kg IV, 90 min post dose, 1 mg/kg
[26] = 1 mg/kg I.V., AII 0.05 mcg/kg IV, 180 min post dose, 1 mg/kg
[27] = 1 mg/kg I.V., AII 0.05 mcg/kg IV, 240 min post dose, 1 mg/kg
[28] = 1 mg/kg I.V., AII 0.1 mcg/kg IV, 30 min post dose, 1 mg/kg
[29] = 1 mg/kg I.V., AII 0.1 mcg/kg IV, 60 min post dose, 1 mg/kg
[30] = 1 mg/kg I.V., AII 0.1 mcg/kg IV, 90 min post dose, 1 mg/kg
[31] = 1 mg/kg I.V., AII 0.1 mcg/kg IV, 120 min post dose, 1 mg/kg
[32] = 1 mg/kg I.V., AII 0.1 mcg/kg IV, 180 min post dose, 1 mg/kg
[33] = 1 mg/kg I.V., AII 0.1 mcg/kg IV, 240 min post dose, 1 mg/kg
[34] = 2 mg/kg P.O., AII 0.05 mcg/kg IV, 30 min post dose, 2 mg/kg
[35] = 2 mg/kg P.O., AII 0.05 mcg/kg IV, 90 min post dose, 2 mg/kg
[36] = 2 mg/kg P.O., AII 0.05 mcg/kg IV, 120 min post dose, 2 mg/kg
[37] = 2 mg/kg P.O., AII 0.05 mcg/kg IV, 180 min post dose, 2 mg/kg
[38] = 2 mg/kg P.O., AII 0.1 mcg/kg IV, 60 min post dose, 2 mg/kg
[39] = 2 mg/kg P.O., AII 0.1 mcg/kg IV, 120 min post dose, 2 mg/kg
[40] = 2 mg/kg P.O., AII 0.1 mcg/kg IV, 180 min post dose, 2 mg/kg

Structure (SMILES): CCCCc1nc2ccc(C(C)(O)CC3CCCN3)cc2c(=O)n1Cc1ccc(-c2ccccc2-c2nnn[nH]2)cc1 (stereo not drawn) [Example 79, CIS-2-Butyl-6-[1-hydroxy-1-methyl-2-(2-pyrrolidinyl)ethyl]-3-[[21-(1H-tetrazol-5-yl)[1,1'-biphenyl]-4-yl]methyl]-4(3H)-quinazolinone]
- % Inhibition [1]: 93%
- Average Change [1]: 2.5 mmhg
- % Inhibition [2]: 67%
- Average Change [2]: 12.5 mmhg
- % Inhibition [3]: 53%
- Average Change [3]: 17.5 mmhg
- % Inhibition [4]: 47%
- Average Change [4]: 20 mmhg
- % Inhibition [5]: 53%
- Average Change [5]: 17.5 mmhg
- % Inhibition [6]: 20%
- Average Change [6]: 30 mmhg
- % Inhibition [7]: 76%
- Average Change [7]: 11 mmhg
- % Inhibition [8]: 62%
- Average Change [8]: 17 mmhg
- % Inhibition [9]: 56%
- Average Change [9]: 20 mmhg
- % Inhibition [10]: 39%
- Average Change [10]: 27.5 mmhg
- % Inhibition [11]: 50%
- Average Change [11]: 22.5 mmhg
- % Inhibition [12]: 24%
- Average Change [12]: 34 mmhg
- % Inhibition [13]: 0%
- Average Change [13]: 27.5 mmhg
- % Inhibition [14]: -9%
- Average Change [14]: 30 mmhg
- % Inhibition [15]: 13%
- Average Change [15]: 24 mmhg
- % Inhibition [16]: 15%
- Average Change [16]: 23.5 mmhg
- % Inhibition [17]: 5%
- Average Change [17]: 26 mmhg
- % Inhibition [18]: -9%
- Average Change [18]: 30 mmhg
- % Inhibition [19]: -36%
- Average Change [19]: 37.5 mmhg
- % Inhibition [20]: -55%
- Average Change [20]: 42.5 mmhg
- % Inhibition [21]: -11%
- Average Change [21]: 30.5 mmhg
- % Inhibition [22]: -40%
- Average Change [22]: 38.5 mmhg
- Response After AII [1]: 200 mmhg
- Change [23]: 0 mmhg and 5 mmhg
- Response After AII [23]: 205 mmhg
- Response After AII [2]: 220 mmhg
- Change [24]: 15 mmhg and 10 mmhg
- Response After AII [24]: 205 mmhg
- Response After AII [3]: 220 mmhg
- Change [25]: 15 mmhg and 20 mmhg
- Response After AII [25]: 215 mmhg
- Change [4]: 20 mmhg
- Response After AII [4]: 215 mmhg
- Response After AII [5]: 220 mmhg
- Change [26]: 15 mmhg and 20 mmhg
- Response After AII [26]: 215 mmhg
- Change [27]: 25 mmhg and 35 mmhg
- Response After AII [27]: 220 mmhg and 235 mmhg
- Response After AII [7]: 202 mmhg
- Change [28]: 15 mmhg and 7 mmhg
- Response After AII [28]: 205 mmhg
- Change [29]: 19 mmhg and 15 mmhg
- Response After AII [29]: 214 mmhg and 210 mmhg
- Response After AII [9]: 220 mmhg
- Change [30]: 25 mmhg and 15 mmhg
- Response After AII [30]: 215 mmhg
- Change [31]: 30 mmhg and 25 mmhg
- Response After AII [31]: 230 mmhg and 220 mmhg
- Response After AII [11]: 220 mmhg
- Change [32]: 30 mmhg and 15 mmhg
- Response After AII [32]: 225 mmhg
- Change [33]: 33 mmhg and 35 mmhg
- Response After AII [33]: 238 mmhg and 240 mmhg
- Control Before AII (1 mg/kg I.V., before AII 0.05 mcg/kg IV, 30 min post dose): 200 mmhg
- Control Before AII (1 mg/kg I.V., before AII 0.05 mcg/kg IV, 60 min post dose, 1 mg/kg): 205 mmhg and 195 mmhg
- Control Before AII (1 mg/kg I.V., before AII 0.05 mcg/kg IV, 90 min post dose): 200 mmhg
- Control Before AII (1 mg/kg I.V., before AII 0.05 mcg/kg IV, 120 min post dose): 195 mmhg
- Control Before AII (1 mg/kg I.V., before AII 0.05 mcg/kg IV, 180 min post dose, 1 mg/kg): 205 mmhg and 195 mmhg
- Control Before AII (1 mg/kg I.V., before AII 0.05 mcg/kg IV, 240 min post dose, 1 mg/kg): 195 mmhg and 200 mmhg
- Control Before AII (1 mg/kg I.V., before AII 0.1 mcg/kg IV, 30 min post dose, 1 mg/kg): 190 mmhg and 195 mmhg
- Control Before AII (1 mg/kg I.V., before AII 0.1 mcg/kg IV, 60 min post dose): 195 mmhg
- Control Before AII (1 mg/kg I.V., before AII 0.1 mcg/kg IV, 90 min post dose, 1 mg/kg): 195 mmhg and 200 mmhg
- Control Before AII (1 mg/kg I.V., before AII 0.1 mcg/kg IV, 120 min post dose, 1 mg/kg): 200 mmhg and 195 mmhg
- Control Before AII (1 mg/kg I.V., before AII 0.1 mcg/kg IV, 180 min post dose, 1 mg/kg): 195 mmhg and 205 mmhg
- Control Before AII (1 mg/kg I.V., before AII 0.1 mcg/kg IV, 240 min post dose): 205 mmhg
- Change [34]: 30 mmhg and 25 mmhg
- Response After AII [34]: 260 mmhg and 275 mmhg
- Change [14]: 30 mmhg
- Response After AII (2 mg/kg P.O., AII 0.05 mcg/kg IV, 60 min post dose, 2 mg/kg): 265 mmhg and 270 mmhg
- Change [35]: 20 mmhg and 28 mmhg
- Response After AII [35]: 245 mmhg and 258 mmhg
- Change [36]: 17 mmhg and 30 mmhg
- Response After AII [36]: 242 mmhg and 265 mmhg
- Change [37]: 17 mmhg and 35 mmhg
- Response After AII [37]: 252 mmhg and 275 mmhg
- Change [18]: 30 mmhg
- Response After AII (2 mg/kg P.O., AII 0.1 mcg/kg IV, 30 min post dose, 2 mg/kg): 265 mmhg and 275 mmhg
- Change [38]: 35 mmhg and 40 mmhg
- Response After AII [38]: 260 mmhg and 280 mmhg
- Response After AII [20]: 270 mmhg
- Change (2 mg/kg P.O., AII 0.1 mcg/kg IV, 90 min post dose, 2 mg/kg): 45 mmhg and 40 mmhg
- Change [39]: 31 mmhg and 30 mmhg
- Response After AII [39]: 255 mmhg and 270 mmhg
- Change [40]: 32 mmhg and 45 mmhg
- Response After AII [40]: 262 mmhg and 280 mmhg
- Control Before AII (2 mg/kg P.O., before AII 0.05 mcg/kg IV, 30 min post dose): 250 mmhg
- Control Before AII (2 mg/kg P.O., before AII 0.05 mcg/kg IV, 30 min post dose, 2 mg/kg): 230 mmhg
- Control Before AII (2 mg/kg P.O., before AII 0.05 mcg/kg IV, 60 min post dose): 240 mmhg
- Control Before AII (2 mg/kg P.O., before AII 0.05 mcg/kg IV, 60 min post dose, 2 mg/kg): 235 mmhg
- Control Before AII (2 mg/kg P.O., before AII 0.05 mcg/kg IV, 90 min post dose, 2 mg/kg): 225 mmhg and 230 mmhg
- Control Before AII (2 mg/kg P.O., before AII 0.05 mcg/kg IV, 120 min post dose, 2 mg/kg): 225 mmhg and 235 mmhg
- Control Before AII (2 mg/kg P.O., before AII 0.05 mcg/kg IV, 180 min post dose): 240 mmhg
- Control Before AII (2 mg/kg P.O., before AII 0.05 mcg/kg IV, 180 min post dose, 2 mg/kg): 235 mmhg
- Control Before AII (2 mg/kg P.O., before AII 0.1 mcg/kg IV, 30 min post dose, 2 mg/kg): 235 mmhg and 245 mmhg
- Control Before AII (2 mg/kg P.O., before AII 0.1 mcg/kg IV, 60 min post dose): 240 mmhg
- Control Before AII (2 mg/kg P.O., before AII 0.1 mcg/kg IV, 60 min post dose, 2 mg/kg): 225 mmhg
- Control Before AII (2 mg/kg P.O., before AII 0.1 mcg/kg IV, 90 min post dose, 2 mg/kg): 225 mmhg and 230 mmhg
- Control Before AII (2 mg/kg P.O., before AII 0.1 mcg/kg IV, 120 min post dose): 240 mmhg
- Control Before AII (2 mg/kg P.O., before AII 0.1 mcg/kg IV, 120 min post dose, 2 mg/kg): 224 mmhg
- Control Before AII (2 mg/kg P.O., before AII 0.1 mcg/kg IV, 180 min post dose, 2 mg/kg): 230 mmhg and 235 mmhg
